PMC7463651, “Phase I/Ib Study of Tenalisib (RP6530), a Dual PI3K δ/γ Inhibitor in Patients with Relapsed/Refractory T-Cell Lymphoma” (Cancers, 2020)
Several values for one entry are separate records, joined by “and”; a condition that tells them apart may be missing. Equal values may be shown once. Entries after “also recorded” stand apart in the source; their conditions may differ. Read-outs that look alike come from different tables or passages of the source.

Assays:
[1] = test system: CD30, IL-31 and IL-32α; assay: Correlative biomarker analysis in plasma; type: in vivo, human
Protocol: Assessment of CD30 and soluble IL-2 receptor (sIL-2R) for PTCL and cutaneous T-cell attracting chemokine (CTACK), IL-31 and IL-32α for CTCL were performed in plasma at screening, pre-dose and after 1 h on Day 1 of Cycle 3, at EOT and/or to confirm a response.

[2] = test system: relapsed/refractory PTCL; assay: Efficacy assessment (ORR, DoR), PTCL patients; type: in vivo, human; conditions: for Median DoR (95% CI) / ORR (95% CI): PTCL
Protocol: Efficacy assessments included radiological, bone marrow biopsy/aspiration and skin assessments. In some cases, bone marrow disease alone was used for disease assessment. In these cases, response was reported as CR or non-CR.
In PTCL patients, radiological assessment was performed at screening, Day 1 of Cycle 3 and 5 and approximately 12 weeks thereafter. Assessments of skin lesions in PTCL patients were performed, if applicable. Bone marrow biopsy/aspirate was performed in patients without measurable but assessable disease at screening and on Day 1 of Cycle 3 and 5, then also approximately 12 weeks thereafter to confirm a CR.
The efficacy parameters included ORR and DoR. Revised Response Criteria for Malignant Lymphoma (Cheson 2007) was used for evaluation of PTCL [21]. International Society for Cutaneous Lymphomas Response Criteria for Mycosis Fungoides and Sezary Syndrome (SS) and Cutaneous Lymphoma Task Force of the European Organization for Research and Treatment of Cancer criteria were used for evaluation of CTCL patients. For skin scoring, the modified Severity Weighted Assessment Tool was used. For local index lesion skin scoring, the Composite Assessment of Index Lesion Severity was used.

[3] = Pharmacokinetic assessments in plasma, phase I/Ib study; type: in vivo, human; conditions: for Fold increase in Cmax: fasting; for AUC(0-inf) / Cmax / AUC / half-life / Tmax / k el: human, plasma, oral; for AUC: read-out: AUC(0-τ); for Tmax: median; for k el: read-out: λz (converted)
Protocol: Complete PK assessments were performed during dose escalation on Day 1 of Cycle 1 and 2 and pre-dose at other time points (pre-dose on Day 8 and Day 15 of Cycle 1 and 2, Day 1 and Day 15 of Cycle 3 and 4 and pre-dose on Cycle 5 and beyond). In the dose expansion phase, samples were collected pre-dose on Day 1 from Cycle 1 to Cycle 8. The PK parameters included maximum plasma concentration (Cmax), time to maximum plasma concentration (Tmax), area under the plasma concentration-time curve from time of administration to the end of the dosing interval (AUC(0-τ)), apparent oral drug clearance during a dosing interval (CLss/F), apparent volume of distribution during a dosing interval (Vz/F) and elimination half-life (t1/2) were evaluated.

[4] = parameters: method as in ref 27 = [27]; 27. Barde P. Rhizen, Switzerland Unpublished work 2016; conditions: healthy volunteers, high fat meal; cited from earlier work
[5] = CTCL group, Cycle 3 Day 1 compared to baseline, correlated with responses
[6] = Dose Escalation 800 mg Fasting, N = 1
[7] = Dose Expansion 800 mg Fasting, N = 10
[8] = between 400 mg and 800 mg BID, Cycle 1 Day 1
[9] = 200 mg, 200 mg BID, C1D1, geometric mean
[10] = 200 mg, 200 mg BID, C2D1, geometric mean
[11] = 400 mg, 400 mg BID, C1D1, geometric mean
[12] = 400 mg, 400 mg BID, C2D1, geometric mean
[13] = 800 mg, 800 mg BID (fed), C1D1, geometric mean
[14] = 800 mg, 800 mg BID (fed), C2D1, geometric mean
[15] = 800 mg, 800 mg BID, C1D1, geometric mean
[16] = 800 mg, 800 mg BID, C2D1, geometric mean

CC[C@H](Nc1ncnc2[nH]cnc12)c1oc2ccccc2c(=O)c1-c1cccc(F)c1 [Tenalisib]
Plasma IL-31 levels [1, 5]: marked downregulation; also recorded: reductions
Plasma IL-32α levels [1, 5]: marked downregulation; also recorded: reductions
Plasma CD30 levels ([1]; PTCL patients, baseline to Cycle 3 Day 1, correlated with response): marked downregulation; also recorded: decrease in CD30 levels
Partial response (PR) ([2]; PTCL patients): 4 (26.7%) n (%)
Complete response (CR) ([2]; PTCL patients, three patients): 20%
Median DoR (95% CI) ([2]; Cumulative Total, N = 15): 6.5 months and 6.5 (2.9, 14.9) months
ORR (95% CI) ([2]; Cumulative Total, N = 15): 46.7% and 46.7 (21.3, 73.4) %
Median DoR (95% CI) ([2]; Dose Escalation 200 mg, N = 2): 4.9 (-,-) months
ORR (95% CI) ([2]; Dose Escalation 200 mg, N = 2): 50.0 (1.3, 98.7) %
Median DoR (95% CI) ([2]; Dose Escalation 400 mg, N = 1): 0.97 (-,-) months
ORR (95% CI) ([2]; Dose Escalation 400 mg, N = 1): 100.0 (2.5, 100.0) %
Median DoR (95% CI) [2, 6]: 19.5 (-,-) months
ORR (95% CI) [2, 6]: 100.0 (2.5, 100.0) %
ORR (95% CI) ([2]; Dose Escalation 800 mg Fed, N = 1): 0.0 (0.0, 97.5) %
Median DoR (95% CI) ([2]; Dose Escalation Total, N = 5): 4.9 (0.0, 19.5) months
ORR (95% CI) ([2]; Dose Escalation Total, N = 5): 60.0 (14.7, 94.7) %
Median DoR (95% CI) [2, 7]: 7.0 (1.2, 17.3) months
ORR (95% CI) [2, 7]: 40.0 (12.2, 73.8) %
Median DoR ([2]; three PTCL patients who achieved CR): 13.3 months
λz ([3]; 200 mg BID, C2D1): 0.4 h⁻¹
λz ([3]; 400 mg BID, C2D1): 0.4 h⁻¹
λz ([3]; 800 mg BID (fed), C1D1): 0.3 h⁻¹
λz ([3]; 800 mg BID (fed), C2D1): 0.3 h⁻¹
Food effect on exposure ([3]; 800 mg BID fasting vs 800 mg BID fed cohort, patients): not significant
λz ([3]; 800 mg BID, C2D1): 0.3 h⁻¹
Change in Cmax and AUC's, fed vs fasting ([3]; 800 mg fed and fasting cohorts, patients): < 20%
Dose proportionality of Cmax and AUC(0-τ) ([3]; Cycle 1 Day 1): increased proportionally with dose
Tissue distribution (Vz/F) ([3]; all cohorts): not highly distributed in tissues
Fold increase in AUC(0-τ) ([3]; between 200mg and 400 mg BID, Cycle 1 Day 1): 1.8 fold
Fold increase in Cmax ([3]; between 200 mg and 400 mg BID, Cycle 1 Day 1): 1.7 fold
Fold increase in Cmax ([3]; between 200 mg and 400 mg BID, Cycle 2 Day 1): 1.8 fold
Fold increase in AUC(0-τ) [3, 8]: 2.6 fold
Fold increase in Cmax [3, 8]: 1.8 fold
Fold increase in Cmax ([3]; between 400 mg and 800 mg BID, Cycle 2 Day 1): 1.1 fold
Accumulation ([3]; between Cycle 1 Day 1 and Cycle 2 Day 1): no significant accumulation
AUC(0-inf) [3, 9]: 3540 ng·h/mL
Cmax [3, 9]: 1300 ng/mL
AUC [3, 9]: 3500 ng·h/mL
half-life ([3]; 200 mg, 200 mg BID, C1D1, geometric mean, read-out: t1/2 (converted)): 1.6 h
Tmax ([3]; 200 mg, 200 mg BID, C1D1): 1 h
AUC(0-inf) [3, 10]: 4020 ng·h/mL
Cmax [3, 10]: 1650 ng/mL
AUC [3, 10]: 3970 ng·h/mL
half-life ([3]; 200 mg, 200 mg BID, C2D1, geometric mean, read-out: t1/2 (converted)): 1.8 h
Tmax ([3]; 200 mg, 200 mg BID, C2D1): 0.5 h
AUC(0-inf) [3, 11]: 6530 ng·h/mL
Cmax [3, 11]: 2200 ng/mL
AUC [3, 11]: 6420 ng·h/mL
half-life ([3]; 400 mg, 400 mg BID, C1D1, geometric mean, read-out: t1/2 (converted)): 1.9 h
Tmax ([3]; 400 mg, 400 mg BID, C1D1): 0.8 h
AUC(0-inf) [3, 12]: 5600 ng·h/mL
Cmax [3, 12]: 2900 ng/mL
AUC [3, 12]: 5530 ng·h/mL
half-life ([3]; 400 mg, 400 mg BID, C2D1, geometric mean, read-out: t1/2 (converted)): 2 h
Tmax ([3]; 400 mg, 400 mg BID, C2D1): 0.5 h
AUC(0-inf) [3, 13]: 14500 ng·h/mL
Cmax [3, 13]: 2670 ng/mL
AUC [3, 13]: 13600 ng·h/mL
half-life ([3]; 800 mg, 800 mg BID (fed), C1D1, geometric mean, read-out: t1/2 (converted)): 2.6 h
Tmax ([3]; 800 mg, 800 mg BID (fed), C1D1): 2.1 h
AUC(0-inf) [3, 14]: 14200 ng·h/mL
Cmax [3, 14]: 4170 ng/mL
AUC [3, 14]: 13600 ng·h/mL
half-life ([3]; 800 mg, 800 mg BID (fed), C2D1, geometric mean, read-out: t1/2 (converted)): 2.8 h
Tmax ([3]; 800 mg, 800 mg BID (fed), C2D1): 1.1 h
AUC(0-inf) [3, 15]: 17400 ng·h/mL
Cmax [3, 15]: 4000 ng/mL
AUC [3, 15]: 16400 ng·h/mL
half-life ([3]; 800 mg, 800 mg BID, C1D1, geometric mean, read-out: t1/2 (converted)): 2.6 h
Tmax ([3]; 800 mg, 800 mg BID, C1D1): 1.1 h
AUC(0-inf) [3, 16]: 17200 ng·h/mL
Cmax [3, 16]: 3230 ng/mL
AUC [3, 16]: 16200 ng·h/mL
half-life ([3]; 800 mg, 800 mg BID, C2D1, geometric mean, read-out: t1/2 (converted)): 2.6 h
Tmax ([3]; 800 mg, 800 mg BID, C2D1): 2.1 h
half-life ([3]; all cohorts, read-out: Median t1/2 (converted)): 2.28 h
half-life ([3]; all cohorts, read-out: t1/2 range): 1.6 to 2.8 h
k el ([3]; 200 mg BID, C1D1): 0.000111 s⁻¹
k el ([3]; 400 mg BID, C1D1): 0.000111 s⁻¹
k el ([3]; 800 mg BID, C1D1): 8.33e-05 s⁻¹
Effect of food on Cmax [4]: no significant effect on Cmax
Effect of food on overall exposure [4]: increased the overall exposure
